Laboratory results: patent US9788542B2, “Safened herbicidal compositions including 4-amino-3-chloro-5-fluoro-6-(4-chloro-2-fluoro-3-methoxyphenyl)pyridine-2-carbox) acid or a derivative thereof for use in corn (maize)” (Dow AgroSciences LLC, priority 2013, dated 2017)
Where “and” joins values, the source holds several entries; their conditions need not be identical. Equal values may be shown once. Read-outs that look alike come from different tables or passages of the source.

Key:
Type in all cases: in vivo
[1] = system: ZEAMX = Zea mays L.; experiment: Postemergence herbicidal safening in corn (maize), greenhouse, visual injury; conditions: for ZEAMX Obs (observed visual injury, 0 = no injury, 100 = complete kill): applied alone at 4 g ai/ha
Method: (§1) When required to ensure good germination and healthy plants, a fungicide treatment and/or other chemical or physical treatment was applied. The plants were grown for 7-36 days in a greenhouse with an approximate 14 hour photoperiod which was maintained at about 18° C. during the day and 17° C. during the night. Nutrients and water were added on a regular basis and supplemental lighting was provided with overhead metal halide 1000-Watt lamps as necessary. The plants were employed for testing when they reached the second or third true leaf stage. Treatments consisted of ester (benzyl) compound of formula (I) (Compound A benzyl ester) and various safeners alone and in combination. Compound of formula (I) and safener components were applied on active ingredient basis. For treatments comprised of formulated compounds, measured amounts of compound of formula (I) were placed individually in 25 mL glass vials and diluted in a volume of 1.25% volume per volume (v/v) Agri-dex crop oil concentrate to obtain stock solutions. […] Stock solutions of the formulated safeners were prepared following the same procedure. Application solutions were prepared by mixing the required amount of each stock solution and addition of an appropriate volume of an aqueous mixture of 1.25% v/v of Agri-dex crop oil concentrate to the appropriate final concentrations of application solutions. […] Application solutions were prepared by adding an appropriate amount of each stock solution and diluted to the appropriate final concentrations with the addition of an appropriate volume of an aqueous mixture of 1.25% (v/v) Agri-dex crop oil concentrate. Application solutions were applied to the plant material with an overhead Mandel track sprayer equipped with […] nozzles calibrated to deliver 187 liters per hectare (L/ha) over an application area of 0.503 square meters (m^2) at a spray height of 18 inches ([…]) above average plant canopy. Control plants were sprayed in the same manner with the solvent blank. The treated plants and control plants were placed in a greenhouse as described above and watered by sub-irrigation to prevent wash-off of the test compounds. […] Colby's equation was used to determine the herbicidal effects expected from the mixtures (Colby, S. R. Calculation of the synergistic and antagonistic response of herbicide combinations. Weeds 1967, 15, 20-22.). The following equation was used to calculate the expected activity of mixtures containing two active ingredients, A and B: […] A=observed efficacy of active ingredient A at the same concentration as used in the mixture; B=observed efficacy of active ingredient B at the same concentration as used in the mixture.

[2] = system: HELAN = Helianthus annuus L.; experiment: Postemergence herbicidal activity, greenhouse, visual injury; conditions: for pest or weed control at 5 g/ha / pest or weed control at 40 g/ha: Helianthus annuus, post-emergence, 480 h, read-out: HELAN Obs (observed visual injury)
Method: as §1

[3] = system: ABUTH = Abutilon theophrasti Medik.; experiment: as above; conditions: for pest or weed control at 5 g/ha / pest or weed control at 40 g/ha: Abutilon theophrasti, post-emergence, 480 h, read-out: ABUTH Obs (observed visual injury)
Method: as §1

[4] = applied alone at 5 g ai/ha, postemergence, after 20-22 days
[5] = applied alone at 40 g ai/ha, postemergence, after 20-22 days
[6] = postemergence, after 20-22 days
[7] = applied alone at 6 g ai/ha, postemergence, after 20-22 days
[8] = applied alone at 20 g ai/ha, postemergence, after 20-22 days
[9] = applied alone at 80 g ai/ha, postemergence, after 20-22 days
[10] = applied alone at 160 g ai/ha, postemergence, after 20-22 days

SMILES | ZEAMX Obs (observed visual injury) [1, 4] [%] | ZEAMX Obs (observed visual injury) [1, 5] | pest or weed control at 5 g/ha [2, 4] [%] | pest or weed control at 40 g/ha [2, 5] [%] | pest or weed control at 5 g/ha [3, 4] [%] | pest or weed control at 40 g/ha [3, 5] [%] | also measured
CC1(C)OC(c2ccco2)CN1C(=O)C(Cl)Cl (racemic) [Furilazole, (±)-3-(dichloroacetyl)-5-(2-furanyl)-2,2-dimethyloxazolidine] | 0 | 0% | 0 | 0 | 0 | 0 | –
Cc1ccc(NC(=O)NC(C)(C)c2ccccc2)cc1 [Daimuron, N-(4-methylphenyl)-N′-(1-methyl-1-phenylethyl)-urea] | – | – | 0 | 0 | 0 | 0 | ZEAMX Obs (observed visual injury) ([1]; in vivo): 0%
CC1COc2ccccc2N1C(=O)C(Cl)Cl (racemic) [Benoxacor, (±)-4-(dichloroacetyl)-3,4-dihydro-3-methyl-2H-1,4-benzoxazine] | 0 | 0% | 0 | 0 | 0 | 0 | –
NC(=O)NS(=O)(=O)c1ccccc1Cl [Compound 2-CBSU, N-(aminocarbonyl)-2-chlorobenzenesulfonamide] | 0 | 0% | 0 | 0 | 0 | 0 | –
CCOC(=O)C1=NOC(c2ccccc2)(c2ccccc2)C1 [Isoxadifen-ethyl, ethyl 4,5-dihydro-5,5-diphenyl-3-isoxazole-carboxylate] | 0 | 0% | – | – | – | – | ZEAMX Obs (observed visual injury, 0 = no injury, 100 = complete kill) [1, 6]: 0%; ZEAMX Obs (observed visual injury) [1, 7]: 0%; ZEAMX Obs (observed visual injury) ([1]; applied alone at 8 g ai/ha, postemergence, after 20-22 days): 0%; ZEAMX Obs (observed visual injury) ([1]; applied alone at 12 g ai/ha, postemergence, after 20-22 days): 0%; ZEAMX Obs (observed visual injury) [1, 8]: 0%; ZEAMX Obs (observed visual injury) [1, 9]: 0%; ZEAMX Obs (observed visual injury) [1, 10]: 3%; pest or weed control at 5 g/ha [2]: 0%; pest or weed control at 40 g/ha [2]: 0%; pest or weed control at 5 g/ha [3]: 0%; pest or weed control at 40 g/ha [3]: 0%
C=CCN(CC=C)C(=O)C(Cl)Cl [Dichlormid, N,N-diallyl-2,2-dichloroacetamide] | 0 | 0% | 0 | 0 | 0 | 0 | –
CCCCCC(C)OC(=O)COc1ccc(Cl)c2cccnc12 (stereo not shown) [Cloquintocet-mexyl] | – | 0% | – | – | – | – | ZEAMX Obs (observed visual injury) [1, 8]: 0%; ZEAMX Obs (observed visual injury) [1, 9]: 0%; ZEAMX Obs (observed visual injury) [1, 10]: 0%
FC(F)(F)/C(=N/OCC1OCCO1)c1ccc(Cl)cc1 [Fluxofenim, 1-(4-chlorophenyl)-2,2,2-trifluoroethanone O-(1,3-dioxolan-2-ylmethyl)oxime] | 0 | 0% | 0 | 0 | 0 | 0 | –
CC1(C)CN2C(=O)CCC2(C)N(C(=O)C(Cl)Cl)C1 (racemic) [Dicyclonon] | 0 | 0% | 0 | 0 | 0 | 0 | –
N#C/C(=N/OCC1OCCO1)c1ccccc1 [Oxabetrinil, α-[(1,3-dioxolan-2-yl)methoxyimino]benzeneacetonitrile] | 0 | 0% | 0 | 0 | 0 | 0 | –
O=C1OC(=O)c2cccc3cccc1c23 [Naphthalic anhydride, naphthalene-1,8-dicarboxylic anhydride] | 0 | 0% | 0 | 0 | 0 | 0 | –
COc1c(Cl)ccc(-c2nc(C(=O)OCc3ccccc3)c(Cl)c(N)c2F)c1F [Compound A benzyl ester] | – | 45% and 23% | – | – | – | – | ZEAMX Obs (observed visual injury, 0 = no injury, 100 = complete kill) [1, 6]: 10%; ZEAMX Obs (observed visual injury) [1, 7]: 16%; ZEAMX Obs (observed visual injury) [1, 8]: 32%; HELAN Obs (observed visual injury) [2, 5]: 94%; ABUTH Obs (observed visual injury) [3, 5]: 95%
